Here are results for two compounds from paper PMC4178217, “Quinoline 3-sulfonamides inhibit lactate dehydrogenase A and reverse aerobic glycolysis in cancer cells” (Cancer & Metabolism, 2013).

Data set [1] has as its system Snu398 cells. As to the kind of experiment: Metabolomics analysis, Snu398 whole-cell extracts. Format: cell-based, human. Particulars: Snu398 whole-cell lysates, 10 μM, 24 h.
Another data set deals with HCC1937 cells. As to the kind of experiment: ECAR after mitochondrial inhibition, breast cancer lines and HCC1937 isogenic shRNA lines. Format: cell-based, human. How it is done:
A2780 were obtained from the European Collection of Cell Cultures (ECACC, Porton Down, UK), IGROV-1 and U251 were from the National Cancer Institute (NCI, Bethesda, MD, USA), and all other cell lines were from American Type Culture Collection (ATCC, Manassas, VA, USA). The cell lines were authenticated as previously described. All cell lines were maintained in a 37°C 5% CO2-95% humidified air incubator. Breast cancer cell lines were cultured in DMEM (Life Technologies, Carlsbad, CA, USA) supplemented with 5% FBS (Sigma-Aldrich, St. Louis, MO, USA). All other cell lines were maintained in R10 medium (Roswell Park Memorial Institute medium (RPMI)-1640 (Life Technologies) supplemented with 10% FBS). MCF10A cells were supplemented with additional cholera toxin (100 ng/mL), hydrocortisone ([…]), insulin (10 μg/mL), and epidermal growth factor (EGF) (20 ng/mL). […]
For XF96 experiments breast cancer cells were seeded in DMEM without bicarbonate at 16,000/well in XF96 V3 PET plates (Seahorse Biosciences) coated with CellTak (BD Biosciences, San Jose, CA, USA). […] The medium was exchanged with DMEM without bicarbonate prior to readings on the XF96 Analyzer (Seahorse Biosciences).

Another data set is described as follows: PK analysis in rats. Format: in vivo, male Sprague–Dawley rats. How it is done: All studies were conducted after review by the Institutional Animal Care and Use Committee at GlaxoSmithKline (GSK) and in accordance with the GSK Policy on the Care, Welfare and Treatment of Laboratory Animals.
Data set [2] relates to Snu398 cells. The data set is described as follows: Cell proliferation and survival, Snu398 (trypan blue, Vi-Cell). It is filed as cell-based, human. How it is done:
Sixty thousand Snu398 cells per well were plated in 6-well tissue culture plates in RPMI-1640 medium supplemented with 2.5% charcoal-stripped FBS (Life Technologies). Cells were allowed to attach overnight and then DMSO control or the indicated doses of LDHA inhibitor dissolved in DMSO were added directly to the wells. After 4 to 8 days of incubation in the indicated oxygen conditions, adherent cells were trypsinized, counted, and had their viability assessed by the trypan-blue exclusion method using the Vi-Cell XR Cell Viability Analyzer (Beckman Coulter, Brea, CA, USA). The same procedure was carried out for HepG2 cells, except non-charcoal-stripped FBS was used. For PARP cleavage analysis, both floating and adherent cells were collected after 24 h and the whole-cell extracts were prepared in radioimmunoprecipitation assay (RIPA) buffer (Sigma-Aldrich) supplemented with protease and phosphatase inhibitor cocktails (Sigma-Aldrich). Solubilized proteins were separated by SDS-PAGE, transferred onto nitrocellulose membrane, and detected with each specific antibody.

Data set [3] is described as follows: rat plasma protein equilibrium dialysis assay. It is filed as in vitro ADME. Particulars: read-out: rat plasma protein binding (converted). (In general: In equilibrium dialysis free small molecules cross a membrane that holds back macromolecules.)
In data set [4] the test system is Snu398 cells. As to the kind of experiment: Pyruvate kinase (PK) activity, Snu398. It is filed as cell-based. The note with it: Homo sapiens, SNU-398; Snu398, 6 h. The method, then: One and a half million cells per well were plated in 6-well tissue culture plates in R10 medium and allowed to attach overnight. The following morning, cells were washed and medium replaced with 2 mL/well of low-glucose medium. DMSO control or the indicated doses of LDHA inhibitor dissolved in DMSO were added to the wells and cells were incubated at 37°C for 6 h. Following the incubation, cells were washed, scraped into 200 μl of distilled de-ionized water and homogenized on ice using OMNI THq homogenizer (Omni International, Kennesaw, GA, USA). Homogenates were cleared by centrifugation and protein concentration measured by bicinchoninic acid (BCA) assay (Thermo Fisher Scientific, Waltham, MA, USA). PK activity was determined using PK Activity kit (BioVision Research Products) per manufacturer’s instructions and normalized to protein concentration. For detection of PKM2 oligomerization, the same protein samples were separated by non-denaturing gel electrophoresis using the NativePAGE™ gel system (Life Technologies), transferred onto polyvinylidene difluoride (PVDF) membranes and subjected to western immunoblotting with anti-PKM2 antibody.

In another data set the test system is HepG2 cells. The data set is described as follows: 13C NMR spectroscopy of glucose consumption and lactate production, HepG2. It is filed as cell-based, human. The note with it: HepG2, 10 μM. The method, then:
After this pre-incubation, cells were washed in PBS and resuspended in 400 μL of glucose-free RPMI supplemented with 10% deuterium oxide, 11 mM D-(1,6-^13C2)glucose, and LDHA inhibitor or DMSO. An additional 600 μL of the same medium was gently added to top off the resuspended cells. Five mm NMR tubes with reduced sample depth (Shigemi Inc, Allison Park, PA, USA) were used to ensure that the cells remain inside the active volume of the receiver coil of the probe. […] . Prior to Fourier transformation, sensitivity and resolution were enhanced by applying an exponential line-broadening of 1 Hz over the first 32,000 data points and then zero filled to 256,000 data points. Spectra were analyzed using in-house data analysis software.

Some results are limits rather than exact numbers.

On to `COc1ncc(-c2ccc3c(Nc4cc(C(=O)O)cc(C5CCCC5)c4)c(S(=O)(=O)NC4CC4)cnc3c2)c(OC)n1` [Compound 2], for which the “increase of cytosolic glycolysis intermediates” value in the data set on Snu398 cells [1] is recorded as not above 40 fold.
By clearance is commonly meant the rate of elimination divided by the concentration. A low value points to a low capacity for elimination. Usually EC50 stands for the concentration at which the effect is half-maximal. For `COc1ncc(-c2ccc3c(Nc4cc(Oc5cc(F)cc(F)c5)cc(C(=O)O)c4)c(S(=O)(=O)NC4CC4)cnc3c2)c(OC)n1` [Compound 1], the “sensitivity (ECAR) with LDHA knockdown” value in the data set on HCC1937 cells (HCC1937 stable LDHA shRNA) is recorded as “did not change their sensitivity”. Besides, in the data set with HCC1937 cells (HCC1937 stable LDHB shRNA), the “sensitivity (ECAR) with LDHB knockdown” value was “more sensitive”. The compound also yielded a clearance in “PK analysis in rats” (male, Sprague-Dawley, rat, whole blood, IV infusion 0.25 mg/kg) of 69 mL/min/kg. The blood compound level in the data set “PK analysis in rats” (oral 50 mg/kg, detection limit 2.5 ng/mL) is on record as not above 2.5 ng/mL. The concentration for a half-maximal effect (EC50) came out at 2900 ± 600 nM in the data set with Snu398 cells [2] (Homo sapiens, SNU-398, Snu398, 4 to 8 days, read-out: viable cell number EC50) and 600 nM in the data set on Snu398 cells [4]. Further, the “dose sufficient to induce cell death” value in the data set on Snu398 cells [2] (Snu398, with FK866) amounted to 3 µM. In addition, the fraction unbound in data set [3] is 0.012. The “(3-13C)lactate production” value in the data set on HepG2 cells was “significantly slowed down lactate production”.
